Several values for one entry are separate records, joined by “and”; a condition that tells them apart may be missing. Equal values may be shown once.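 Grown in 96-well plates, cells were treated for 48 hours with each compound at five concentrations. Insufficient inhibition: endpoint recorded as highest concentration tested. GI50 marks 50% less growth. Definition used: TGI = concentration required for complete inhibition of growth.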
What was measured:
Assay in all cases: NCI tumour cell line growth inhibition, 48 h
KM12 colon = tested on: KM12 colon
MCF7 breast = tested on: MCF7 breast
SK-MEL-2 melanoma = tested on: SK-MEL-2 melanoma
DU-145 prostate = tested on: DU-145 prostate
SW-620 colon = tested on: SW-620 colon
RXF 393 renal = tested on: RXF 393 renal
RPMI-8226 leukemia = tested on: RPMI-8226 leukemia
SK-MEL-28 melanoma = tested on: SK-MEL-28 melanoma
NCI/ADR-RES ovarian = tested on: NCI/ADR-RES ovarian
NCI-H23 lung = tested on: NCI-H23 lung

Row | SMILES | GI50 (KM12 colon) | TGI (KM12 colon) | GI50 (MCF7 breast) | TGI (MCF7 breast) | GI50 (SK-MEL-2 melanoma) | TGI (SK-MEL-2 melanoma) | GI50 (DU-145 prostate) | TGI (DU-145 prostate) | GI50 (SW-620 colon) | TGI (SW-620 colon) | GI50 (RXF 393 renal) | TGI (RXF 393 renal) | GI50 (RPMI-8226 leukemia) | TGI (RPMI-8226 leukemia) | GI50 (SK-MEL-28 melanoma) | TGI (SK-MEL-28 melanoma) | GI50 (NCI/ADR-RES ovarian) | TGI (NCI/ADR-RES ovarian) | GI50 (NCI-H23 lung) | TGI (NCI-H23 lung)
1 | CC(=O)/C(=C\c1c(-c2ccccc2)[nH]c2ccccc12)S(=O)(=O)c1ccccc1 | 1.01 µM | 2.65 µM | 0.903 µM | 9.36 µM | 1.39 µM | 5.3 µM | 2.94 µM | 9.31 µM | 0.73 µM | 7.14 µM | 1.25 µM | 2.8 µM | 2.23 µM | 7.14 µM | 1.87 µM | 7.02 µM | 0.513 µM | 5.62 µM | 1.48 µM | 5.52 µM
2 | COc1ccc2nccc(/C=C/c3ccnc4ccc(OC)cc34)c2c1 | > 73.1 µM | > 100 µM | 2.39 µM | > 38.5 µM | > 53.6 µM | > 78.4 µM | > 42.4 µM | > 63.4 µM | 39.8 µM | > 100 µM | > 73.4 µM | > 100 µM | 17.8 µM | 39.9 µM | 24.6 µM | 73.8 µM | > 100 µM | > 100 µM | > 100 µM | > 100 µM
3 | C[C@]12CC[C@@H]3c4ccc(O)cc4CC[C@H]3[C@@H]1CC[C@@H]2NS(=O)(=O)c1ccc2ccccc2c1 | 1.92 µM | 4.06 µM | 3.36 µM | 9.48 µM | 2.75 µM | 7.94 µM | 4.14 µM | 17.5 µM | 3.4 µM | 15.7 µM | 1.84 µM | 4.33 µM | 2.93 µM | 9.94 µM | 2.31 µM | 5.92 µM | 2.61 µM | 8 µM | 3.34 µM | 14.8 µM
4 | Nc1ncnc2nn(C3OC(CO)C(O)C3O)nc12 (centres undefined) | – | > 100 µM | – | > 62.3 µM | – | 17.5 µM | – | > 45.4 µM | – | > 100 µM | – | > 23.1 µM | – | 26.5 µM | – | > 100 µM | – | > 86.8 µM | – | 67.9 µM
5 | C[C@@](O)(/C=C/[C@H]1CC=CC(=O)O1)[C@@H](C[C@@H](O)\C=C/C=C\C=C\CO)OP(=O)(O)O | – | 32.2 µM and 37.8 µM | 5.01 µM | 13.9 µM and 50.4 µM | 19.8 µM | 65.2 µM and 42.4 µM | – | 32.5 µM | – | 70.9 µM | – | 23.8 µM and 13 µM | – | 8.5 µM | 8.69 µM | 38.8 µM and 25.3 µM | – | 143 µM | 15 µM | 91.6 µM and 68.3 µM
6 | COc1ccc2[nH]c(O)c(/C=c3/ccc4c(c3)N=C(c3ccc(F)cc3)N=4)c2c1 | 4.54 µM | 77.9 µM | 4.53 µM | 93.3 µM | 5.72 µM | 44.8 µM | 2.23 µM | 6.87 µM | 4.34 µM | > 100 µM | 1.95 µM | 4.06 µM | 3.01 µM | > 100 µM | 4.34 µM | 28.8 µM | 3.78 µM | 24.4 µM | 3.14 µM | 28.1 µM
7 | Cc1cc2c(=O)[nH]c(N)nc2nc1C | – | > 100 µM | – | > 100 µM | – | > 100 µM | – | > 100 µM | – | > 100 µM | – | > 100 µM | – | > 100 µM | – | > 100 µM | – | > 100 µM | – | > 100 µM

Reference: PubChem BioAssay (NCI)
